Assay results published in article PMC4259018 (MedChemComm, 2014).

Tests used:
[1] = system: mPTPB transfected Raw264.7 cells; assay type: cell-based; conditions: 10 μM
mPTPB = mPTPB (Mycobacterium tuberculosis, UniProt I6WXK4); assay: mPTPB catalyzed para-nitrophenyl phosphate hydrolysis inhibition; assay type: biochemical; conditions: for activity at 100 μM: 100 μM compound
human PTPs = assay: Specificity for mPTPB over panel of human PTPs; assay type: biochemical; conditions: mPTPB versus PTP1B, SHP2, SHP1, PTP-Meg2, CD45, PTPε, VHR, Laforin

mPTPB, sequence (I6WXK4 whole entry, looked up): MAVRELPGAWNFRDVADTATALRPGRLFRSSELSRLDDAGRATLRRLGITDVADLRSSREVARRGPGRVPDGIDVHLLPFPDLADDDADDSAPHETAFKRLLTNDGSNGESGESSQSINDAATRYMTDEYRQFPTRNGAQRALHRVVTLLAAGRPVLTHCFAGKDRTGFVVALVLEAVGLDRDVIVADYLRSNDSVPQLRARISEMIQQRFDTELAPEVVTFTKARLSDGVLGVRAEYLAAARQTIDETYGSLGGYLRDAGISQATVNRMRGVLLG

O=C(O)c1cc2sc(Nc3ccccc3)nc2cc1O [11a]
effects on Erk1/2 and Akt phosphorylation [1]: has no such effects
fold more active than 11b (mPTPB): 3 fold

O=C(O)c1cc2sc(Nc3cccc(Br)c3)nc2cc1O [11h]
fold preference for mPTPB against human PTPs (human PTPs): over 20 fold
Akt phosphorylation ([1]; 5 μM, dose dependent): decreased
Erk1/2 phosphorylation ([1]; 5 μM, dose dependent): increased
Ki (mPTPB): 2.2 ± 0.1 µM
fold increase in potency in comparison to 11a (mPTPB): 12 fold
mode of inhibition (mPTPB; mPTPB, against pNPP): noncompetitive inhibitor
fold improvement of salicylic acid mPTPB inhibitory activity (mPTPB; mPTPB, versus salicylic acid): 27,500 fold

O=C(O)c1cc2[nH]c(=O)oc2cc1O [compound 6]
activity at 100 μM (mPTPB; mPTPB): did not exhibit activity

O=C1COc2cc(O)c(C(=O)O)cc2N1 [compound 7]
activity at 100 μM (mPTPB; mPTPB): did not exhibit activity

O=C(O)CN1CC(=O)Oc2cc(O)c(C(=O)O)cc21 [compound 8]
activity at 100 μM (mPTPB; mPTPB): did not exhibit activity

O=C(O)c1cc2nc(-c3ccccc3)oc2cc1O [compound 9]
IC50 (mPTPB): 20 to 30 µM

O=C(O)c1cc2[nH]c(-c3ccccc3)nc2cc1O [compound 10]
IC50 (mPTPB): 20 to 30 µM
